Where “and” joins values, the source holds several entries; their conditions need not be identical. Equal values may be shown once. Inconclusive results and toxic doses are left out.
Tested on: L1210 leukemia ip in BDF1 mice, survival T/C
Experiment: NCI In Vivo Anticancer Drug Screen. Data for tumor model L1210 Leukemia (intraperitoneal) in B6D2F1 (BDF1) mice
Details: endpoint: mean survival time, higher = longer survival
In short: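 Tumor cells were implanted, animals were treated, and survival was followed. The result divides the treated measurement by the vehicle-control measurement.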

[1] = dose: 100.0 mg/kg/injection, schedule: Q04DX002 (ip), vehicle: Klucel (hydroxypropylcellulose) (HPC)
[2] = dose: 200.0 mg/kg/injection, schedule: Q04DX002 (ip), vehicle: Klucel (hydroxypropylcellulose) (HPC)
[3] = dose: 400.0 mg/kg/injection, schedule: Q04DX002 (ip), vehicle: Klucel (hydroxypropylcellulose) (HPC)
[4] = dose: 50.0 mg/kg/injection, schedule: Q01DX009 (ip), vehicle: saline
[5] = dose: 100.0 mg/kg/injection, schedule: Q01DX009 (ip), vehicle: saline
[6] = dose: 200.0 mg/kg/injection, schedule: Q01DX009 (ip), vehicle: saline
[7] = dose: 60.0 mg/kg/injection, schedule: Q01DX Z (ip), vehicle: carboxymethylcellulose (CMC)

## Cn1cnc([N+](=O)[O-])c1Sc1ncnc2c1ncn2C1OC(CO)C(O)C1O (stereo not drawn)
dose: 18.0 mg/kg/injection, schedule: Q01DX009 (ip), vehicle: saline
  T/C: 100 % of control
dose: 35.0 mg/kg/injection, schedule: Q01DX009 (ip), vehicle: saline
  T/C: 108 % of control
dose: 75.0 mg/kg/injection, schedule: Q04DX003 (ip), vehicle: Klucel (hydroxypropylcellulose) (HPC)
  T/C: 121 % of control
dose: 110.0 mg/kg/injection, schedule: Q01DX009 (ip), vehicle: saline
  T/C: 152 % of control
dose: 165.0 mg/kg/injection, schedule: Q01DX009 (ip), vehicle: saline
  T/C: 150 % of control
dose: 176.0 mg/kg/injection, schedule: Q01DX009 (ip), vehicle: other
  T/C: 164 % of control
dose: 250.0 mg/kg/injection, schedule: Q01DX009 (ip), vehicle: saline
  T/C: 154 % of control
dose: 300.0 mg/kg/injection, schedule: Q04DX003 (ip), vehicle: Klucel (hydroxypropylcellulose) (HPC)
  T/C: 156 % of control

## O=C(Oc1ccc(S(=O)(=O)F)cc1Cl)c1ccc(Cl)cc1
[1]
  T/C: 92 % of control
[2]
  T/C: 89 % of control
[3]
  T/C: 89 % of control

## CC12CCC(OC3OC(CO)C(O)C(O)C3O)CC1CCC1C2CCC2(C)C(C3=CC(=O)OC3)CCC12O (stereo not drawn)
dose: 10.0 mg/kg/injection, schedule: Q01DX009 (ip), vehicle: saline
  T/C: 101 % of control
dose: 20.0 mg/kg/injection, schedule: Q01DX009 (ip), vehicle: saline
  T/C: 96 % of control
dose: 40.0 mg/kg/injection, schedule: Q01DX009 (ip), vehicle: saline
  T/C: 102 % of control

## CCCCC(CC)COC(=O)CC(CC(=O)OCC(CC)CCCC)C(=O)OCC(CC)CCCC (stereo not drawn)
[4]
  T/C: 111 % of control
[5]
  T/C: 97 % of control
[6]
  T/C: 92 % of control

## O=C(Nc1cc(Cl)ccc1Cl)c1ccccc1Cl
dose: 100.0 mg/kg/injection, schedule: Q01DX009 (ip), vehicle: Klucel (hydroxypropylcellulose) (HPC)
  T/C: 94 % of control
dose: 100.0 mg/kg/injection, schedule: Q04DX003 (ip), vehicle: Klucel (hydroxypropylcellulose) (HPC)
  T/C: 102 % of control
dose: 200.0 mg/kg/injection, schedule: Q01DX009 (ip), vehicle: Klucel (hydroxypropylcellulose) (HPC)
  T/C: 87 % of control
dose: 200.0 mg/kg/injection, schedule: Q04DX003 (ip), vehicle: Klucel (hydroxypropylcellulose) (HPC)
  T/C: 97 % of control
dose: 400.0 mg/kg/injection, schedule: Q01DX009 (ip), vehicle: Klucel (hydroxypropylcellulose) (HPC)
  T/C: 92 % of control
dose: 400.0 mg/kg/injection, schedule: Q04DX003 (ip), vehicle: Klucel (hydroxypropylcellulose) (HPC)
  T/C: 91 % of control

## Nc1nc(N)c(N=O)c(Nc2ccc(I)cc2)n1
dose: 40.0 mg/kg/injection, schedule: Q01DX Z (ip), vehicle: carboxymethylcellulose (CMC)
  T/C: 102 % of control
dose: 50.0 mg/kg/injection, schedule: Q01DX009 (ip), vehicle: acetone
  T/C: 108 % of control
dose: 50.0 mg/kg/injection, schedule: Q04DX003 (ip), vehicle: carboxymethylcellulose (CMC)
  T/C: 109 % of control
[7]
  T/C: 104 % of control
dose: 90.0 mg/kg/injection, schedule: Q01DX Z (ip), vehicle: carboxymethylcellulose (CMC)
  T/C: 88 % of control
dose: 100.0 mg/kg/injection, schedule: Q01DX001 (ip), vehicle: carboxymethylcellulose (CMC)
  T/C: 101 % of control
dose: 100.0 mg/kg/injection, schedule: Q01DX009 (ip), vehicle: acetone
  T/C: 106 % of control
dose: 100.0 mg/kg/injection, schedule: Q04DX003 (ip), vehicle: carboxymethylcellulose (CMC)
  T/C: 106 % of control
dose: 135.0 mg/kg/injection, schedule: Q01DX Z (ip), vehicle: carboxymethylcellulose (CMC)
  T/C: 89 % of control
dose: 200.0 mg/kg/injection, schedule: Q01DX001 (ip), vehicle: carboxymethylcellulose (CMC)
  T/C: 101 % of control
dose: 200.0 mg/kg/injection, schedule: Q04DX003 (ip), vehicle: carboxymethylcellulose (CMC)
  T/C: 96 % of control

## O=C(O)c1ccc2c(c1)C(Br)(Br)C2(Br)Br
dose: 100.0 mg/kg/injection, schedule: Q01DX009 (ip), vehicle: saline with Tween-80
  T/C: 98 % of control
dose: 200.0 mg/kg/injection, schedule: Q01DX009 (ip), vehicle: saline with Tween-80
  T/C: 101 % of control
dose: 400.0 mg/kg/injection, schedule: Q01DX009 (ip), vehicle: saline with Tween-80
  T/C: 103 % of control

## C=CC(C)=O.C=CC(C)=O.C=CC(C)=O.[W]
dose: 100.0 mg/kg/injection, schedule: Q04DX003 (ip), vehicle: other
  T/C: 94 % of control
dose: 200.0 mg/kg/injection, schedule: Q04DX003 (ip), vehicle: other
  T/C: 92 % of control
dose: 400.0 mg/kg/injection, schedule: Q04DX003 (ip), vehicle: other
  T/C: 97 % of control

## NC(N)=NN=C(C1CC1)C1CC1
dose: 15.0 mg/kg/injection, schedule: Q01DX Z (ip), vehicle: carboxymethylcellulose (CMC)
  T/C: 103 % of control
dose: 30.0 mg/kg/injection, schedule: Q01DX Z (ip), vehicle: carboxymethylcellulose (CMC)
  T/C: 89 % of control
[7]
  T/C: 95 % of control
dose: 120.0 mg/kg/injection, schedule: Q01DX Z (ip), vehicle: carboxymethylcellulose (CMC)
  T/C: 92 % of control and 96 % of control
dose: 120.0 mg/kg/injection, schedule: Q01DX Z (oral), vehicle: carboxymethylcellulose (CMC)
  T/C: 105 % of control
dose: 240.0 mg/kg/injection, schedule: Q01DX Z (ip), vehicle: carboxymethylcellulose (CMC)
  T/C: 92 % of control and 104 % of control
dose: 240.0 mg/kg/injection, schedule: Q01DX Z (oral), vehicle: carboxymethylcellulose (CMC)
  T/C: 105 % of control
dose: 480.0 mg/kg/injection, schedule: Q01DX Z (ip), vehicle: carboxymethylcellulose (CMC)
  T/C: 104 % of control
dose: 480.0 mg/kg/injection, schedule: Q01DX Z (oral), vehicle: carboxymethylcellulose (CMC)
  T/C: 103 % of control
dose: 960.0 mg/kg/injection, schedule: Q01DX Z (oral), vehicle: carboxymethylcellulose (CMC)
  T/C: 100 % of control

## CN(C)CNC=O
dose: 25.0 mg/kg/injection, schedule: Q01DX009 (ip), vehicle: saline
  T/C: 86 % of control
[4]
  T/C: 96 % of control
[5]
  T/C: 96 % of control and 99 % of control
dose: 100.0 mg/kg/injection, schedule: Q04DX003 (ip), vehicle: saline
  T/C: 103 % of control
dose: 200.0 mg/kg/injection, schedule: Q04DX003 (ip), vehicle: saline
  T/C: 106 % of control
dose: 400.0 mg/kg/injection, schedule: Q04DX003 (ip), vehicle: saline
  T/C: 97 % of control

## Cc1ccc(Cl)cc1NC(=S)Nc1ccccc1
[1]
  T/C: 100 % of control
[2]
  T/C: 103 % of control
[3]
  T/C: 106 % of control

## Cc1nc(N)[nH]c(=O)c1CCCN=Cc1cccc([N+](=O)[O-])c1
dose: 12.5 mg/kg/injection, schedule: Q01DX001 (ip), vehicle: Klucel (hydroxypropylcellulose) (HPC)
  T/C: 110 % of control
dose: 25.0 mg/kg/injection, schedule: Q01DX001 (ip), vehicle: Klucel (hydroxypropylcellulose) (HPC)
  T/C: 103 % of control
dose: 50.0 mg/kg/injection, schedule: Q01DX001 (ip), vehicle: Klucel (hydroxypropylcellulose) (HPC)
  T/C: 97 % of control

## CC(=O)CC(=O)N1CCN(C(=O)CC(C)=O)CC1
[5]
  T/C: 100 % of control
[6]
  T/C: 96 % of control
dose: 400.0 mg/kg/injection, schedule: Q01DX009 (ip), vehicle: saline
  T/C: 100 % of control

## CC(C)(C)NC(=O)C1C(c2ccccc2)C1c1ccccc1 (stereo not drawn)
[1]
  T/C: 90 % of control
[2]
  T/C: 113 % of control
[3]
  T/C: 100 % of control

## CS(=O)(=O)OCCN(CCOS(C)(=O)=O)c1ccc(N=O)c(Cl)c1
dose: 0.08 mg/kg/injection, schedule: Q01DX015 (ip), vehicle: saline
  T/C: 97 % of control
dose: 0.14 mg/kg/injection, schedule: Q01DX015 (ip), vehicle: saline
  T/C: 103 % of control
dose: 0.22 mg/kg/injection, schedule: Q01DX001 (ip), vehicle: saline
  T/C: 114 % of control
dose: 0.23 mg/kg/injection, schedule: Q01DX015 (ip), vehicle: saline
  T/C: 114 % of control
dose: 0.5 mg/kg/injection, schedule: Q01DX001 (ip), vehicle: saline
  T/C: 122 % of control
dose: 1.0 mg/kg/injection, schedule: Q01DX015 (ip), vehicle: saline
  T/C: 124 % of control
dose: 2.0 mg/kg/injection, schedule: Q01DX015 (ip), vehicle: saline
  T/C: 97 % of control
dose: 4.0 mg/kg/injection, schedule: Q01DX001 (ip), vehicle: saline
  T/C: 117 % of control
dose: 4.5 mg/kg/injection, schedule: Q01DX001 (ip), vehicle: saline
  T/C: 86 % of control

## Cc1cccc(C(=O)OCCBr)c1
dose: 100.0 mg/kg/injection, schedule: Q04DX003 (ip), vehicle: saline sonified
  T/C: 98 % of control
dose: 200.0 mg/kg/injection, schedule: Q04DX003 (ip), vehicle: saline sonified
  T/C: 104 % of control
dose: 400.0 mg/kg/injection, schedule: Q04DX003 (ip), vehicle: saline sonified
  T/C: 106 % of control

## S=C(Nc1ccccc1)Nc1ccccc1Cl
[1]
  T/C: 100 % of control
[2]
  T/C: 100 % of control
[3]
  T/C: 95 % of control

— PubChem BioAssay AID248 (DTP/NCI, 2004)
